Assay results: patent US5846742A, “Selecting substances for treating glucocorticoid-mediated inflammation or immune diseases using Tripterygium wilfordii Hook F extracts” (Board of Regents, The University of Texas System, priority 1997, dated 1998)

What was measured:
[1] = tested on: lymph cells; conditions: concanavalin A; cited from earlier work
[2] = tested on: PGE2 production by human monocytes (COX-2); assay: Endotoxin induced PGE2 production by monocytes (COX-2); assay type: cell-based; conditions: LPS 10 μg/ml, 18 hours, FIG. 29
Description: After 18 hours of incubation, cell-free supernatants were collected and assayed for PGE2 content with a radioimmunoassay kit (Amersham), as described by the manufacturer. Data represent the mean of two replicate determinations of two separate experiments. […] Human monocytes produce prostaglandinE2 (PGE2) when stimulated with bacterial endotoxin.

[3] = tested on: T cells; assay: PHA-induced T cell proliferation, wilforonide (924); assay type: cell-based, human; conditions: at the level of ngs
Source text: The molecular groups responsible for the immune suppressive function of these compounds are unknown, however, the core structure of diterpenoids which may be related to their activity consists of an α-β-unsaturated 5 element lactone which can be identified by Kedde reagents. HPLC was used to fractionate the ethyl acetate extract of TwHF and the Kedde reagents were employed to trace the fractions. Then, the effect of selected fractions on the in vitro IL-2 production and [^3 H]-thymidine incorporation by PHA-activated T cells was determined. Fractions that inhibit these T cell functions were selected and the chromatographic pattern was identified with HPLC. One fraction was further purified with HPLC and crystallized repeatedly; a pure, crystallized compound was obtained and designated "924".
[^3 H]-thymidine was added for the last 14 hours of culture. Each concentration was run in quadruplicate (4 times) and the results for each concentration averaged to provide a mean. The mean cpm×10^3 values were combined and expressed as a percent of T cell inhibition.
or absence of the indicated concentrations of wilforonide for 3 days.
[^3 H]-Thymidine was added for the last 14 hours. Data are from 4
independent experiments.

[4] = tested on: IDH4 cells; assay type: cell-based, human; conditions: 72 hours, FIG. 25
Description: IDH4 cells, that express endogenous glucocorticoid receptors, were produced by transfecting human fibroblasts with a plasmid containing the MMTV-long terminal repeat driving the SV40 large T antigen. Since extended growth of these cells is dependent on expression of the large T antigen, these cells require exogenous glucocorticoid to maintain proliferation.
[^3 H]-Thymidine was present for the last 16 h. Data represent the mean k inhibition of [^3 H]-thymidine incorporation of three replicate determinations of three separate experiments.

[5] = tested on: human GR (COS-7 cells, MMTV-luciferase); assay: GR mediated MMTV-luciferase gene activation; assay type: cell-based; conditions: for GR-mediated target gene activation: purified TwHF compounds
Description: Cell transfections and assays of GR mediated gene activation. COS-7 cells were maintained in culture in DMEM-10% bovine calf serum. […] Cells were plated at 10^6 cells per 10 cm plate. Twenty-four hours later, the cells were transfected with 500 ng pRShGrα, a GR expression vector (obtained from the Salk Institute, La Jolla, Calif.) and 10 μg of pMMTV-luciferase, a synthetic reporter gene. However, other expression vectors and synthetic reporter genes available to those of skill in the art may be used for transfection. The vector pMMTV-luciferase contains the luciferase gene under regulatory control of glucocorticoid-inducible elements in the MMTV-long terminal repeat. Cells were transfected using the calcium-phosphate precipitation technique (mammalian transfection kit, Stratagene, La Jolla, Calif.). […] Twenty-four hours later, the cells were washed, harvested, and lysates prepared by three cycles of freeze/thawing. The lysates were cleared by centrifugation at 12,000×g for 5 minutes; aliquots were assayed for protein content and equal amounts of proteins were used for luciferase assays.
COS-7 cells were transfected with a human GR expression vector and the MMTV-luciferase reporter gene construct. A parallel set of plates was transfected with the constitutively active RSV-luciferase construct. […] Cells were lysed after 24 hours and assayed for luciferase activity.

[6] = tested on: mouse spleen cells; conditions: high concentrations; cited from earlier work
[7] = tested on: Fibroblasts; assay type: cell-based, human; conditions: triptolide 10 ng/ml
Description: The cells were assayed for cell viability by using a cytoflowmeter (FACSCAN) after the cells were stained with propidium iodine.

[8] = tested on: T cells; assay: PHA-induced T cell DNA synthesis, triptolide; assay type: cell-based, human; conditions: for PHA-induced T cell DNA synthesis (3H-thymidine incorporation): control 93,400
[9] = tested on: B cells; assay: SA-induced B cell DNA synthesis / Ig production, triptolide; assay type: cell-based, human; conditions: for SA-induced B cell DNA synthesis (3H-thymidine incorporation): control 7,900
Source text: Other components of Tripterygium wilfordii Hook F include: […]

SMILES	Lymph cell proliferation [1]	Endotoxin induced PGE2 production / COX-2 induction [2]	Immunosuppressive action [3]	Dexamethasone dependent growth of IDH4 cells [4]	GR-mediated target gene activation [5]	also measured
CC(C)[C@]12O[C@H]1[C@@H]1O[C@@]13[C@@]1(C)CCC4=C(COC4=O)[C@@H]1C[C@@H]1O[C@@]13C2=O [Triptonide, triptonide, reference compound]	inhibit the proliferation of lymph cells induced by concanavalin A					
CC#C[C@]1(O)CC[C@H]2[C@@H]3CCC4=CC(=O)CCC4=C3[C@@H](c3ccc(N(C)C)cc3)C[C@@]21C [RU486, reference compound]		inhibits endotoxin-induced PGE2 production by human peripheral blood monocytes, however, it is not as effective as the TwHF extract at lower concentrations				
CC(C)[C@]12O[C@H]1[C@@H]1O[C@]13[C@]1(O[C@H]1C[C@H]1C4=C(C(=O)OC4)[C@@H](O)C[C@@]13C)[C@@H]2O [Tripdiolide, tripdiolide]		inhibited by the extract of TwHF and its purified immunosuppressive component, tripdiolide	potent immunosuppressive action	inhibited dexamethasone dependent growth of IDH4 cells in a concentration dependent manner	inhibited target gene activation by GR	
CC(C)c1ccc2c(c1O)CC[C@H]1C3=C(CC[C@]21C)C(=O)OC3 [Triptophenolide, triptophenolide]				less active and its activity was not generally correlated with dosage	far less potent	Immunosuppressive activity relative to triptolide or tripdiolide [5]: much less immunosuppressive than triptolide or tripdiolide
CC(C)[C@]12O[C@H]1[C@@H]1O[C@]13[C@]1(O[C@H]1C[C@H]1C4=C(CC[C@@]13C)C(=O)OC4)[C@@H]2O [Triptolide, triptolide]	inhibit the proliferation of lymph cells induced by concanavalin A		potent immunosuppressive action		inhibited target gene activation by GR	Lymphocyte proliferation and IL-2 production [6]: suppress B and T lymphocyte proliferation and interleukin-2 production by mouse spleen cells; Toxicity to fibroblasts [7]: toxic to fibroblasts; PHA-induced T cell DNA synthesis (3H-thymidine incorporation) ([8]; 0.1 ng/ml): 24,200 CPM; PHA-induced T cell DNA synthesis (3H-thymidine incorporation) ([8]; 1.0 ng/ml): 100 CPM; T lymphocyte proliferation ([8]; 0.1-1.0 ng/ml): inhibited proliferation of both T and B lymphocytes profoundly; SA-induced B cell DNA synthesis (3H-thymidine incorporation) ([9]; 0.1 ng/ml): 2,000 CPM; SA-induced B cell DNA synthesis (3H-thymidine incorporation) ([9]; 1.0 ng/ml): 100 CPM; B lymphocyte proliferation ([9]; 0.1-1.0 ng/ml): inhibited proliferation of both T and B lymphocytes profoundly; Immunoglobulin production, mitogen stimulated B lymphocytes ([9]; in vitro): inhibited the in vitro production of immunoglobulin from mitogen stimulated human B lymphocytes at comparably small concentrations
